According to PMC9386001, “Identification of naturally occurring inhibitors in Xian-Ling-Gu-Bao capsule against the glucuronidation of estrogens” (Frontiers in Pharmacology, 2022):
Like-named read-outs stand apart in the source and are kept apart here.

Tests used:
[1] = molecular target: T1, UGT2B7 (Homo sapiens, UniProt P16662); assay: Inhibition of UGT2B7 (zidovudine-N-glucuronidation); conditions: for Inhibitory type: best model by smallest AIC and SC; for activity at 10 µM: human, probe zidovudine (AZT); for α: mixed-type inhibition model, αKi
T1 sequence (P16662 24-529): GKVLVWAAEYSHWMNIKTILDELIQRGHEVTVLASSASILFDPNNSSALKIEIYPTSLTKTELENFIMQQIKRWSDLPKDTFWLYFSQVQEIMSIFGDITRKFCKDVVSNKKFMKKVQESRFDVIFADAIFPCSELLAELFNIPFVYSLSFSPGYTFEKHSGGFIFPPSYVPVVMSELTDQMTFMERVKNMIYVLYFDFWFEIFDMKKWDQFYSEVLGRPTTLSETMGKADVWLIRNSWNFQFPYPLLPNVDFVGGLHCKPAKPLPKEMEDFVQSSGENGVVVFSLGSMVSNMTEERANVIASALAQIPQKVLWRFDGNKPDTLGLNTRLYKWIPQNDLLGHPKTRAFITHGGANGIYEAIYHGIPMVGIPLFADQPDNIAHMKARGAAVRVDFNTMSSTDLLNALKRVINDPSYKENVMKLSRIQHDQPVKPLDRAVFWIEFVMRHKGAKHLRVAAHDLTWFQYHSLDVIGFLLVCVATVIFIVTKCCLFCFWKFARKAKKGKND
Protocol: (§1) The final volume of solvent in incubations was 1%. In addition, emodin, atazanavir, and diclofenac were considered as positive controls for UGT1A10, UGT1A1, and UGT2B7, respectively.
(§2) Competitive inhibition, non-competitive inhibition, and mixed-type inhibition models were used to estimate the Ki values by nonlinear regression based on Eqs 6–8, respectively.

[2] = molecular target: T2, UGT1A1 (Homo sapiens, UniProt P22309); assay: Inhibition of UGT1A1 (β-estradiol-3-O-glucuronidation); conditions: for Inhibitory type: best model by smallest AIC and SC; for activity at 10 µM: human
T2 sequence (P22309 26-533): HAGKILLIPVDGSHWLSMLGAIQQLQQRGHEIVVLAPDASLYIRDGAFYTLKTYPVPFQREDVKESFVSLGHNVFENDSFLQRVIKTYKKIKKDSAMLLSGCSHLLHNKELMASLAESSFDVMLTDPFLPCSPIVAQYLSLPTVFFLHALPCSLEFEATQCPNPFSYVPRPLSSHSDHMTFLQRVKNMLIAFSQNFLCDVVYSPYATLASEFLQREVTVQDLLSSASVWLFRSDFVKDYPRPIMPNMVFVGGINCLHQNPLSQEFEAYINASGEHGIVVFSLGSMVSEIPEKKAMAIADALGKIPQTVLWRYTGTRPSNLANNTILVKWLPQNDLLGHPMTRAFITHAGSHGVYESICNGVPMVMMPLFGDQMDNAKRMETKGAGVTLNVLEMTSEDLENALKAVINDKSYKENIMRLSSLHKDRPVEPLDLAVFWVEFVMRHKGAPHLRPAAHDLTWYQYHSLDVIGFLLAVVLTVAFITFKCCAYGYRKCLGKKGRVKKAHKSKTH
Protocol: as §1, §2

[3] = molecular target: T3, UGT1A10 (Homo sapiens, UniProt Q9HAW8); assay: Inhibition of UGT1A10 (4-methylumbelliferone-O-glucuronidation); conditions: for Inhibitory type: best model by smallest AIC and SC; for activity at 10 µM: human, expressed human UGT1A10 enzyme, probe 4-methylumbelliferone (4-MU)
T3 sequence (Q9HAW8 26-530): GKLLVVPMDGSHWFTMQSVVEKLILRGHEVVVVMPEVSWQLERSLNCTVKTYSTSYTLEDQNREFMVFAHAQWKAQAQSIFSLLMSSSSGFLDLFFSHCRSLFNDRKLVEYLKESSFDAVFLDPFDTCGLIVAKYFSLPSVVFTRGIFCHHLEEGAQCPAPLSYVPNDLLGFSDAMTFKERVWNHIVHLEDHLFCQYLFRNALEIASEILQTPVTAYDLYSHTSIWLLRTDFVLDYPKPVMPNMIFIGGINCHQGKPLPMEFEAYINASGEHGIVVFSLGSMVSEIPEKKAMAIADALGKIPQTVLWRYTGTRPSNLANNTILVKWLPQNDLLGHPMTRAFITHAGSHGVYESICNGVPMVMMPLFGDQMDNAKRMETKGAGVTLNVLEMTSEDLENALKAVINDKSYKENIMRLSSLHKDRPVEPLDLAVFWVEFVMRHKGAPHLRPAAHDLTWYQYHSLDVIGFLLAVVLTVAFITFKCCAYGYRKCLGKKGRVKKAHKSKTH
Protocol: as §1, §2

[4] = tested on: UGT1A1; set-up: method as in Wang et al., 2015a; conditions: ref Wang et al., 2015a; cited from earlier work
[5] = substrate: C[C@]12CC[C@@H]3c4ccc(O)cc4CC[C@H]3[C@@H]1C[C@@H](O)[C@@H]2O; assay: cells, lysate or membranes named; conditions: other: UGT2B7; 16-O-glucuronide formation; pH 7.4; 37.0 °C
Protocol: In brief, incubation mixtures (100 μL) contained Tris-HCl buffer solution (50 mM, pH = 7.4), microsomes (HLM, HIM, 0.5 mg/ml) or UGT enzymes (1 mg/ml), MgCl2 (0.88 mM), alamethicin (22 μg/ml), and D-saccharic-1,4-lactone (4.4 mM) and respective substrate. The volume of organic solvent in incubation mixtures was kept below 1%. After pre-incubation at 37°C for 5 min, the reaction was commenced with the addition of UDPGA (4 mM) and subsequently incubated at 37°C for a period. The reaction was terminated by adding 100 μL of cold acetonitrile. Then, the incubation mixtures were vortexed and centrifuged at 13,800 g for 10 min to collect the supernatant for analysis.
All experiments were performed in triplicate.
Glucuronidation rates were expressed as the amounts of formed metabolites per minute per milligram protein (pmol/min/mg protein) based on Eq. 1. Furthermore, kinetic characteristics were evaluated from the suitable curves based on the profile of the Eadie–Hofstee plot, and corresponding kinetic parameters were estimated using Eqs 2–4. Appropriated model fitting was performed by GraphPad Prism V5 software (San Diego, CA).
The intrinsic clearance (CL int ) was derived from V max /K m for Michaelis–Menten and substrate inhibition models, and the maximal clearance (CL max ) was obtained using Eq. 5 for Hill kinetics.

[6] = UGT2B7 enzyme (optimized UGT2B7 incubation system)
[7] = human UGT1A1 enzyme, probe β-estradiol (E2)

## C=C[C@@](C)(/C=C/c1ccc(O)cc1)CCC=C(C)C [Bakuchiol, bakuchiol]
[1]
  IC50: 4550 ± 430 nM
[1]; UGT2B7
  Inhibitory type: Competitive
[1]; [6]
  activity at 10 µM: 35.5%

## CC(C)=CCc1cc(C(=O)/C=C/c2ccc(O)cc2)c(O)cc1O [Bavachalcone, bavachalcone]
[2]
  IC50: 530 ± 70 nM
  Ki: 1100 ± 80 nM
[2]; UGT1A1
  Inhibitory type: Non-competitive
[2]; [7]
  activity at 10 µM: 13%
[1]
  IC50: 4650 ± 520 nM
  Ki: 1870 ± 200 nM
[1]; UGT2B7
  Inhibitory type: Competitive
[1]; [6]
  activity at 10 µM: 27.2%

## CC(C)=CCc1cc2c(cc1O)O[C@H](c1ccc(O)cc1)CC2=O [Bavachin, bavachin]
[2]
  IC50: 610 ± 20 nM
  Ki: 400 ± 50 nM
[2]; UGT1A1
  Inhibitory type: Non-competitive
[2]; [7]
  activity at 10 µM: 2.43%
[1]
  IC50: 4970 ± 550 nM
  Ki: 640 ± 160 nM
[1]; UGT2B7
  Inhibitory type: Mixed type
  α: 69.70 ± 6.67
[1]; [6]
  activity at 10 µM: 32.5%
[3]
  IC50: 5630 ± 460 nM
  Ki: 2810 ± 210 nM
  activity at 10 µM: 35.6%
[3]; UGT1A10
  Inhibitory type: Competitive
[4]
  Ki: < 1000 nM

## CC(C)=CCC/C(C)=C/Cc1cc(-c2coc3cc(O)ccc3c2=O)ccc1O [Corylifol A, corylifol A]
[2]
  IC50: 440 ± 50 nM
  Ki: 440 ± 70 nM
[2]; UGT1A1
  Inhibitory type: Competitive
[2]; [7]
  activity at 10 µM: 0.72%
[1]
  IC50: 880 ± 80 nM
  Ki: 360 ± 70 nM
[1]; UGT2B7
  Inhibitory type: Mixed type
  α: 5.17 ± 3.55
[1]; [6]
  activity at 10 µM: 0%
[3]
  IC50: 2910 ± 340 nM
  Ki: 780 ± 60 nM
  activity at 10 µM: 13.9%
[3]; UGT1A10
  Inhibitory type: Non-competitive
[4]
  Ki: < 1000 nM

## COc1ccc(-c2oc3c(CC=C(C)C)c(O[C@@H]4O[C@H](CO)[C@@H](O)[C@H](O)[C@H]4O)cc(O)c3c(=O)c2O[C@@H]2O[C@@H](C)[C@H](O)[C@@H](O)[C@H]2O)cc1 [Icariin, icariin]
[3]
  IC50: 5940 ± 1240 nM
  Ki: 9770 ± 820 nM
  activity at 10 µM: 37.3%

## COc1ccc(-c2oc3c(CC=C(C)C)c(O[C@@H]4O[C@H](CO)[C@@H](O)[C@H](O)[C@H]4O)cc(O)c3c(=O)c2O)cc1 [Icariside I, icariside I]
[2]
  IC50: 3280 ± 1200 nM
  Ki: 6010 ± 470 nM
[2]; UGT1A1
  Inhibitory type: Non-competitive
[2]; [7]
  activity at 10 µM: 35.5%
[3]
  IC50: 1390 ± 330 nM
  Ki: 1920 ± 260 nM
  activity at 10 µM: 26.5%
[3]; UGT1A10
  Inhibitory type: Competitive

## COc1ccc(-c2oc3c(CC=C(C)C)c(O)cc(O)c3c(=O)c2O)cc1 [Icaritin, icaritin]
[2]
  IC50: 1280 ± 260 nM
  Ki: 420 ± 170 nM
[2]; UGT1A1
  Inhibitory type: Non-competitive
[2]; [7]
  activity at 10 µM: 10.2%

## CC(C)=CCc1c(O)ccc(C(=O)/C=C/c2ccc(O)cc2)c1O [Isobavachalcone, isobavachalcone]
[2]
  IC50: 1650 ± 150 nM
  Ki: 1200 ± 120 nM
[2]; UGT1A1
  Inhibitory type: Non-competitive
[2]; [7]
  activity at 10 µM: 3.97%
[1]
  IC50: 1380 ± 220 nM
  Ki: 300 ± 70 nM
[1]; UGT2B7
  Inhibitory type: Competitive
[1]; [6]
  activity at 10 µM: 0%
[3]
  IC50: 2800 ± 300 nM
  Ki: 1660 ± 190 nM
  activity at 10 µM: 8.61%
[3]; UGT1A10
  Inhibitory type: Non-competitive

## CC(C)=CCc1c(O)ccc2c1O[C@H](c1ccc(O)cc1)CC2=O [Isobavachin, isobavachin]
[2]
  IC50: 1730 ± 110 nM
[2]; UGT1A1
  Inhibitory type: Competitive
[2]; UGT1A1, substrate E2
  Ki: 3350 ± 530 nM
[2]; [7]
  activity at 10 µM: 4.58%
[1]
  IC50: 110 ± 10 nM
[1]; UGT2B7
  Inhibitory type: Competitive
[1]; UGT2B7, substrate AZT
  Ki: 20 ± 10 nM
[1]; [6]
  activity at 10 µM: 0%
[3]
  IC50: 3620 ± 360 nM
  Ki: 1810 ± 280 nM
  activity at 10 µM: 20.4%
[3]; UGT1A10
  Inhibitory type: Non-competitive

## CC(C)=CCc1cc(-c2coc3cc(O)ccc3c2=O)ccc1O [Neobavaisoflavone, neobavaisoflavone]
[2]
  IC50: 2860 ± 140 nM
  Ki: 780 ± 160 nM
[2]; UGT1A1
  Inhibitory type: Non-competitive
[2]; [7]
  activity at 10 µM: 7.42%
[1]
  IC50: 1170 ± 100 nM
  Ki: 390 ± 30 nM
[1]; UGT2B7
  Inhibitory type: Mixed type
  α: 5.15 ± 2.08
[1]; [6]
  activity at 10 µM: 10.2%
[3]
  IC50: 3990 ± 670 nM
  Ki: 2600 ± 230 nM
  activity at 10 µM: 31.1%
[3]; UGT1A10
  Inhibitory type: Competitive

## CC(C)=CCc1cc2c(cc1O)oc(=O)c1c3ccc(O)cc3oc21 [Psoralidin, psoralidin]
[2]
  IC50: 1950 ± 150 nM
  Ki: 980 ± 230 nM
[2]; UGT1A1
  Inhibitory type: Non-competitive
[2]; [7]
  activity at 10 µM: 1.48%

## O=C(C=Cc1ccc(O)c2c1C(C(=O)OC(Cc1ccc(O)c(O)c1)C(=O)O)C(c1ccc(O)c(O)c1)O2)OC(Cc1ccc(O)c(O)c1)C(=O)O (centres unmarked) [Salvianolic acid B, salvianolic acid B]
[2]
  IC50: 3780 ± 530 nM
  Ki: 2160 ± 210 nM
  activity at 10 µM: 36.2%
[2]; UGT1A1
  Inhibitory type: Competitive

## COC(=O)N[C@H](C(=O)N[C@@H](Cc1ccccc1)[C@@H](O)CN(Cc1ccc(-c2ccccn2)cc1)NC(=O)[C@@H](NC(=O)OC)C(C)(C)C)C(C)(C)C [atazanavir, reference compound]
[2]; expressed human UGT1A1 enzyme, probe β-estradiol (E2)
  activity at 10 µM: 4.38%

## O=C(O)Cc1ccccc1Nc1c(Cl)cccc1Cl [diclofenac, reference compound]
[1]; expressed human UGT2B7 enzyme
  activity at 10 µM: 53.9%

## Cc1cc(O)c2c(c1)C(=O)c1cc(O)cc(O)c1C2=O [emodin, reference compound]
[3]
  activity at 10 µM: 52.4%

## bavachinin
[1]; 10 μM, % of negative control
  residual activity (Figures 3G–I, UGT2B7): 13.23%
[1]; UGT2B7
  Inhibitory type: Competitive
[1]; UGT2B7, substrate AZT
  IC50: 2270 ± 260 nM
  Ki: 1110 ± 170 nM
[3]; 10 μM, % of negative control
  residual activity of UGT1A10: 37.70%
[3]; UGT1A10
  Inhibitory type: Competitive
[3]; UGT1A10, substrate 4-MU
  IC50: 5420 ± 640 nM
  Ki: 3290 ± 230 nM

## icariside II
[2]; UGT1A1
  Inhibitory type: Competitive
[1]; UGT2B7
  Inhibitory type: Competitive
[3]; UGT1A10
  Inhibitory type: Competitive

B1: UGT2B7 (Homo sapiens) (protein)
chain: T1 sequence (P16662 24-529)
[5]
  K0.5: 9.92 ± 0.69 µM
  Vmax: 0.00788 µmol/min/mg
  Vmax/Km: 794 µL/min/mg
